Earlier results in US9265822B2 (priority 2009, dated 2016).

Test system: 2009 H1N1 swine flu virus

Row | Structure (SMILES) | resistance or susceptibility of the virus
1 | NC12CC3CC(CC(C3)C1)C2 [amantadine] | resistant
2 | CCOC(=O)C1=C[C@@H](OC(CC)CC)[C@H](NC(C)=O)[C@@H](N)C1 [oseltamivir] | susceptible
3 | CC(N)C12CC3CC(CC(C3)C1)C2 (stereo not shown) [rimantadine] | resistant
4 | CC(=O)N[C@H]1[C@H]([C@H](O)[C@H](O)CO)OC(C(=O)O)=C[C@@H]1N=C(N)N [zanamivir] | susceptible
